# Data as given in article PMC8537140, “Synthesis and Inhibition Activity Study of Triazinyl-Substituted Amino(alkyl)-benzenesulfonamide Conjugates with Polar and Hydrophobic Amino Acids as Inhibitors of Human Carbonic Anhydrases I, II, IV, IX, and XII” (International Journal of Molecular Sciences, 2021).
# Legend:
# Assay type in all cases: biochemical
# hCA I = biological target: T1, hCA I (Homo sapiens, UniProt P00915); test: stopped-flow CO2 hydrase assay, hCA I; settings: recombinant enzyme, 15 min preincubation, pH 8.3, mean from 3 assays
# T1 construct: made in house
# Protocol: (§1) An Applied Photophysics stopped-flow instrument (Applied Photophysics, Leatherhead, UK) was used for assaying the CA-catalyzed CO2 hydration activity [31]. […] The uncatalyzed rates were determined in the same manner and subtracted from the total observed rates. Stock solutions of inhibitor (0.1 mM) were prepared in distilled-deionized water and dilutions up to 0.005 nM were done thereafter with the assay buffer. Inhibitor and enzyme solutions were preincubated together for 15 min at room temperature prior to assay, in order to allow formation of the E–I complex. The inhibition constants were obtained by non-linear least-squares methods using PRISM 3 and the ChengPrusoff equation, as reported earlier, and represent the mean from at least three different determinations. All CA isozymes were recombinant ones obtained in-house.
# hCA IV = biological target: T2, hCA IV (Homo sapiens, UniProt P22748); test: stopped-flow CO2 hydrase assay, hCA IV; settings: recombinant enzyme, 15 min preincubation, pH 8.3, mean from 3 assays
# T2 construct: made in house
# Protocol: as §1
# hCA XII = biological target: T3, hCA XII (Homo sapiens, UniProt O43570); test: stopped-flow CO2 hydrase assay, hCA XII; settings: for Selectivity II/XII: ratio Ki hCA II / Ki hCA XII; for Ki: recombinant enzyme, 15 min preincubation, pH 8.3, mean from 3 assays
# T3 construct: made in house
# Protocol: as §1
# hCA IX = biological target: T4, hCA IX (Homo sapiens, UniProt Q16790); test: stopped-flow CO2 hydrase assay, hCA IX; settings: for Selectivity II/IX: ratio Ki hCA II / Ki hCA IX; for Ki: recombinant enzyme, 15 min preincubation, pH 8.3, mean from 3 assays
# T4 construct: made in house
# Protocol: as §1
# hCA II = biological target: T5, hCA II (Homo sapiens, UniProt P00918); test: stopped-flow CO2 hydrase assay, hCA II; settings: recombinant enzyme, 15 min preincubation, pH 8.3, mean from 3 assays
# T5 construct: made in house
# Protocol: as §1
# T3 sequence (O43570 25-354): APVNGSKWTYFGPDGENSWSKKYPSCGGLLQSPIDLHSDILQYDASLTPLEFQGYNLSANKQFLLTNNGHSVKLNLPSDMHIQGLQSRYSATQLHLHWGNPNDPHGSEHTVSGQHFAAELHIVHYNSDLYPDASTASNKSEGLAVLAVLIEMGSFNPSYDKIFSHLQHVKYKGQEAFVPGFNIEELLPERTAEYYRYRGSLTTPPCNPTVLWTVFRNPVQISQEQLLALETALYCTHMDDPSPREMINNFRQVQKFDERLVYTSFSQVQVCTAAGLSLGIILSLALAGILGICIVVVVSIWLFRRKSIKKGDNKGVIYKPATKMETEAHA
# T2 sequence (P22748 19-312): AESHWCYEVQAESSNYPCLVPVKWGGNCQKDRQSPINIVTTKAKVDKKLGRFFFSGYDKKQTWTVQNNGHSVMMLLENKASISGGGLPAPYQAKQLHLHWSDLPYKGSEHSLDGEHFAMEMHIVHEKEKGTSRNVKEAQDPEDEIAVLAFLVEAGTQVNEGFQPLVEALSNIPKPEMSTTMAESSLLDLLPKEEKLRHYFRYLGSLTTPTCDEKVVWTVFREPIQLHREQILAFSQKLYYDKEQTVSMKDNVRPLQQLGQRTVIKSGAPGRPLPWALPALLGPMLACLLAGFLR
# T1 sequence (P00915 whole entry): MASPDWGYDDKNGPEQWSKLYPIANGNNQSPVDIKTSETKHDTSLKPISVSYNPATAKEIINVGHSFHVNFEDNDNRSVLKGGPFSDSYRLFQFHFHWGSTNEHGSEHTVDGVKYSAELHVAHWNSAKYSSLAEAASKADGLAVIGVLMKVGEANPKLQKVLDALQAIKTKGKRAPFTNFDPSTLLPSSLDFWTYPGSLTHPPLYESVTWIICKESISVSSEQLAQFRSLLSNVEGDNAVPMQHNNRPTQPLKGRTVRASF
Ki (hCA I) [nM],Ki (hCA IV) [nM],Selectivity II/XII (hCA XII),Ki (hCA XII) [nM],Selectivity II/IX (hCA IX),Ki (hCA IX) [nM],Ki (hCA II) [nM],SMILES
6560,8700,7.30,71.9,1.12,465,523,NS(=O)(=O)c1ccc(Nc2nc(NC(CO)C(=O)O)nc(NC(CO)C(=O)O)n2)cc1 (stereo not drawn) [compound 7]
819,> 10000,10.10,27.1,3.19,85.5,273,"NS(=O)(=O)c1ccc(CCNc2nc(NC(CO)C(=O)O)nc(NC(CO)C(=O)O)n2)cc1 (stereo not drawn) [compound 21, 2,2′-[(6-({2-(4-sulfamoylphenyl)ethyl}amino)-1,3,5-triazine-2,4-diyl)diimino]bis(3-hydroxypropanoic acid)]"
636,470,19.60,9.3,2.87,63.5,182,"CC(Nc1nc(NCc2ccc(S(N)(=O)=O)cc2)nc(NC(C)C(=O)O)n1)C(=O)O (stereo not drawn) [compound 11, 2,2′-[(6-({4-sulfamoylbenzyl}amino)-1,3,5-triazine-2,4-diyl)diimino]dipropanoic acid]"
886,> 10000,2.60,53.1,0.36,377,136,"NC(=O)CC(Nc1nc(NCCc2ccc(S(N)(=O)=O)cc2)nc(NC(CC(N)=O)C(=O)O)n1)C(=O)O (stereo not drawn) [compound 23, 2,2′-[(6-({2-(4-sulfamoylphenyl)ethyl}amino)-1,3,5-triazine-2,4-diyl)diimino]bis(3-carbamoylpropanoic acid)]"
> 10000,5330,17.10,38.4,0.73,895,656,NC(=O)CC(Nc1nc(Nc2ccc(S(N)(=O)=O)cc2)nc(NC(CC(N)=O)C(=O)O)n1)C(=O)O (stereo not drawn) [compound 9]
5540,88.1,88.10,8.88,1.52,515,782,CC(Nc1nc(Nc2ccc(S(N)(=O)=O)cc2)nc(NC(C)C(=O)O)n1)C(=O)O (stereo not drawn) [compound 4]
834,> 10000,5.70,44,2.63,95.3,251,"NC(=O)CC(Nc1nc(NCc2ccc(S(N)(=O)=O)cc2)nc(NC(CC(N)=O)C(=O)O)n1)C(=O)O (stereo not drawn) [compound 16, 2,2′-[(6-({4-sulfamoylbenzyl}amino)-1,3,5-triazine-2,4-diyl)diimino]bis(3-carbamoylpropanoic acid)]"
30.5,93.6,0.70,8.6,0.09,66.4,6.22,"NS(=O)(=O)c1ccc(CNc2nc(NC(Cc3c[nH]c4ccccc34)C(=O)O)nc(NC(Cc3c[nH]c4ccccc34)C(=O)O)n2)cc1 (stereo not drawn) [compound 13, 2,2′-[(6-({4-sulfamoylbenzyl}amino)-1,3,5-triazine-2,4-diyl)diimino]bis(3-(1H-indol-3-yl)propanoic acid)]"
653,6100,3.10,81.5,0.96,263,252,"NS(=O)(=O)c1ccc(CNc2nc(NC(CO)C(=O)O)nc(NC(CO)C(=O)O)n2)cc1 (stereo not drawn) [compound 14, 2,2′-[(6-({4-sulfamoylbenzyl}amino)-1,3,5-triazine-2,4-diyl)diimino]bis(3-hydroxypropanoic acid)]"
9200,8410,11.30,68.3,1.24,625,775,NC(=O)CCC(Nc1nc(Nc2ccc(S(N)(=O)=O)cc2)nc(NC(CCC(N)=O)C(=O)O)n1)C(=O)O (stereo not drawn) [compound 10]
98.3,74.6,0.40,9.41,0.06,57.8,3.61,NS(=O)(=O)c1ccc(Nc2nc(NC(Cc3ccc(O)cc3)C(=O)O)nc(NC(Cc3ccc(O)cc3)C(=O)O)n2)cc1 (stereo not drawn) [compound 5]
75.7,244,6.10,8.7,0.61,87.3,53.1,"NS(=O)(=O)c1ccc(CNc2nc(NC(Cc3ccc(O)cc3)C(=O)O)nc(NC(Cc3ccc(O)cc3)C(=O)O)n2)cc1 (stereo not drawn) [compound 12, 2,2′-[(6-({4-sulfamoylbenzyl}amino)-1,3,5-triazine-2,4-diyl)diimino]bis(3-(4-hydroxyphenyl)propanoic acid)]"
695,> 10000,7.00,34.3,0.52,458,239,"NC(=O)CCC(Nc1nc(NCc2ccc(S(N)(=O)=O)cc2)nc(NC(CCC(N)=O)C(=O)O)n1)C(=O)O (stereo not drawn) [compound 17, 2,2′-[(6-({4-sulfamoylbenzyl}amino)-1,3,5-triazine-2,4-diyl)diimino]bis(4-carbamoylbutanoic acid)]"
829,> 10000,4.10,62.7,2.89,89.5,259,"CC(O)C(Nc1nc(NCCc2ccc(S(N)(=O)=O)cc2)nc(NC(C(=O)O)C(C)O)n1)C(=O)O (stereo not drawn) [compound 22, 2,2′-[(6-({2-(4-sulfamoylphenyl)ethyl}amino)-1,3,5-triazine-2,4-diyl)diimino]bis(3-hydroxybutanoic acid)]"
684,> 10000,3.40,57,0.40,480,191,"NC(=O)CCC(Nc1nc(NCCc2ccc(S(N)(=O)=O)cc2)nc(NC(CCC(N)=O)C(=O)O)n1)C(=O)O (stereo not drawn) [compound 24, 2,2′-[(6-({2-(4-sulfamoylphenyl)ethyl}amino)-1,3,5-triazine-2,4-diyl)diimino]bis(4-carbamoylbutanoic acid)]"
60.8,879,1.70,7.5,0.21,61.1,12.8,"NS(=O)(=O)c1ccc(CCNc2nc(NC(Cc3ccc(O)cc3)C(=O)O)nc(NC(Cc3ccc(O)cc3)C(=O)O)n2)cc1 (stereo not drawn) [compound 19, 2,2′-[(6-({2-(4-sulfamoylphenyl)ethyl}amino)-1,3,5-triazine-2,4-diyl)diimino]bis(3-(4-hydroxyphenyl)propanoic acid)]"
787,3860,,,,78.8,169,"CC(Nc1nc(NCCc2ccc(S(N)(=O)=O)cc2)nc(NC(C)C(=O)O)n1)C(=O)O (stereo not drawn) [compound 18, 2,2′-[(6-({2-(4-sulfamoylphenyl)ethyl}amino)-1,3,5-triazine-2,4-diyl)diimino]dipropanoic acid]"
684,> 10000,1.70,44.9,0.21,365,76.6,"CC(O)C(Nc1nc(NCc2ccc(S(N)(=O)=O)cc2)nc(NC(C(=O)O)C(C)O)n1)C(=O)O (stereo not drawn) [compound 15, 2,2′-[(6-({4-sulfamoylbenzyl}amino)-1,3,5-triazine-2,4-diyl)diimino]bis(3-hydroxybutanoic acid)]"
41.4,542,0.40,8.4,0.01,308,3.54,"NS(=O)(=O)c1ccc(CCNc2nc(NC(Cc3c[nH]c4ccccc34)C(=O)O)nc(NC(Cc3c[nH]c4ccccc34)C(=O)O)n2)cc1 (stereo not drawn) [compound 20, 2,2′-[(6-({2-(4-sulfamoylphenyl)ethyl}amino)-1,3,5-triazine-2,4-diyl)diimino]bis(3-(1H-indol-3-yl)propanoic acid)]"
7270,4910,26.10,34.6,1.04,867,904,CC(O)C(Nc1nc(Nc2ccc(S(N)(=O)=O)cc2)nc(NC(C(=O)O)C(C)O)n1)C(=O)O (stereo not drawn) [compound 8]

SMILES,Ki (hCA I) [nM],Ki (hCA IV) [nM],Selectivity II/XII (hCA XII),Ki (hCA XII) [nM],Selectivity II/IX (hCA IX),Ki (hCA IX) [nM],Ki (hCA II) [nM]
NS(=O)(=O)c1ccc(Nc2nc(N[C@@H](Cc3c[nH]c4ccccc34)C(=O)O)nc(N[C@@H](Cc3c[nH]c4ccccc34)C(=O)O)n2)cc1 [compound 6],48.3,59.3,0.20,8.21,0.04,45.2,1.61
